Measured values from PMC11774245 (Journal of Natural Products, 2025).

Columns and labels:
5-HT1A receptor = biological target: T1, 5-HT1A receptor (Homo sapiens, UniProt P08908); assay: radioligand displacement of [3H]-8-hydroxy-DPAT on membranes; supported by PathHunter β-arrestin PAM assay in CHO-K1 cells with human 5-HT1A; format: binding; settings: read-out: % inhibition at 10 μM; 20% at 1 μM %
T1 construct: gene HTR1A
T1 sequence (P08908 1-422): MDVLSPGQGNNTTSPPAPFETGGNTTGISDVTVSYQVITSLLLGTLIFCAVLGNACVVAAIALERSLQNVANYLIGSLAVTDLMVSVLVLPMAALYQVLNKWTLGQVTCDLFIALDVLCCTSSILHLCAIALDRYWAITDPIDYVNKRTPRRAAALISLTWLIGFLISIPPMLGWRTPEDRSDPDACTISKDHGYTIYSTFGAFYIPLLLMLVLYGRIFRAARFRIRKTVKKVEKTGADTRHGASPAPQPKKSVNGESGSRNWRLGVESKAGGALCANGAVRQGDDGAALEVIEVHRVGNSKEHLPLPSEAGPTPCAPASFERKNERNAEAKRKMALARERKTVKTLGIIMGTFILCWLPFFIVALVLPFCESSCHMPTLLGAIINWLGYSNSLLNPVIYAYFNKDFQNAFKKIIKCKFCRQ

CB2 receptor = biological target: T2, CB2 receptor (Homo sapiens, UniProt P34972); assay: radioligand displacement of [3H]-CP55940 on membranes; format: binding; settings: read-out: % inhibition at 10 μM; none at 1 μM %
T2 construct: gene CNR2
T2 sequence (P34972 whole entry): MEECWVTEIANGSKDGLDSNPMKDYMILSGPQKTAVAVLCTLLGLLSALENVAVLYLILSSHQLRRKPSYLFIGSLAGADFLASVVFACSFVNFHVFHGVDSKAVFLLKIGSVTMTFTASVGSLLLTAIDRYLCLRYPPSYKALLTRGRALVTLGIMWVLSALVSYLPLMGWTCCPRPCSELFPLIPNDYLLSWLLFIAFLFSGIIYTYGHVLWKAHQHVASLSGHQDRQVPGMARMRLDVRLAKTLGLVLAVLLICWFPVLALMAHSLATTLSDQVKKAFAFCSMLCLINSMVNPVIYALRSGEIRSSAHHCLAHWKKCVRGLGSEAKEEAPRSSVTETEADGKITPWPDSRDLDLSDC

Q: With `CCCCCc1cc(O)c2c(c1)OC1(C)CCC3C1C2C3(C)C` (racemic) [(±)-CBL] as the molecule, how does the inhibition at 10 µM (5-HT1A receptor) read?
A: The inhibition at 10 µM was 75%.

Q: What about the inhibition at 10 µM (CB2 receptor) of the same molecule?
A: The inhibition at 10 µM was 68%.
